Data: patent US20250170132A1, “SALTS AND POLYMORPHIC FORMS OF MENIN INHIBITORS AND PHARMACEUTICAL COMPOSITIONS THEREOF” (Syndax Pharmaceuticals, Inc., priority 2023, published 2025)

Key:
Type in all cases: physicochemical
[1] = Aqueous solubility of Compound A salts
Protocol: Solubility of Compound A citrate was determined in 3 different types of matrices: unbuffered water, citrate-buffered solutions from pH 3 to 6, and formulations consisting of citrate, advantame, methylparaben sodium, potassium sorbate, and sodium chloride at pH ranging from 3 to 6. Solubility in unbuffered water at ambient temperature was 38.5 mg/mL.
The target pH was reassessed when the F3 formulation was developed. Compound A citrate solubility studies were performed initially in simple buffered solutions to assess solubility trends as a function of pH. […] The target concentration of Compound A was therefore changed to 40 mg/mL as a compromise between drug substance and preservatives dissolution rate and stability.

[2] = Polymorph screen: slow evaporation; conditions: Diethylamine, 50° C.
Protocol: (§1) X-ray powder diffraction (XRPD) • Instrument: Panalytical Empyrean • Parameters: X-Ray tube Cu (Kα radiation); Power: 45 kV×40 mA • Scanning range: 2 to 40 2θ (degree) • Step size: 0.01 degree • Scanning speed: 6.33 degree (20) per minute Thermogravimetric analysis (TGA) • Instrument: TA Instruments Discovery TGA • Parameters: Ramp 10° C. per minute, 25 to 300° C., 50 mL/min N2 sweep Differential scanning calorimetry (DSC) • Instrument: TA Instruments Discovery DSC • Parameters: Ramp 10° C. per minute, up to 300° C. Polarized light microscopy (PLM) • Instrument: Nikon Eclipse Ci POL • Camera: Nikon DS-Fi3 • Software: Nikon NIS Elements
The vials were covered with paraffin film with 3-5 holes and placed at specified temperature for evaporation. The obtained solids were characterized by XRPD (Table 35).

[3] = Polymorph screen: liquid vapor diffusion
Protocol: as §1
The obtained solids were characterized by XRPD after 7-10 days (Table 32).

[4] = Polymorph screen: sonication induced crystallization
Protocol: as §1
Sonication induced crystallization—About 40 mg API was suspended and sonicated in different solvents in 4 mL vials at RT. The solids in the slurry were characterized by XRPD after 1-day (Table 38).

[5] = Polymorph screen: slurry at 50° C.; conditions: slurry 50° C.
Protocol: as §1
Slurry at 50° C.—About 40 mg API was suspended and stirred in different solvents in 4 mL vials at 50° C. The solids in the slurry were characterized by XRPD after 3 days (Table 34).

[6] = Polymorph screen: solvent drop grinding; conditions: XRPD
Protocol: as §1
Solvent drop grinding—About 30 mg API was ground with different solvents. The obtained solids were characterized by XRPD (Table 39).

[7] = Solution stability studies at accelerated conditions, counterion adduct (Impurity A); conditions: solution stability at accelerated conditions
Excerpt: Compound A monocitrate monohydrate has at least two advantageously and unexpected characteristics. […] Second, in the manufacturing process, Compound A fumarate requires a separate slurrying step which results in a solvate with an organic solvent. Compound A monocitrate monohydrate salt is isolated directly from ethanol:water, no slurrying step is required. […] Additionally, the Compound A monocitrate forms a monohydrate instead of a solvate with one or more organic molecules.
Although this degradation pathway is more accelerated in solution it was also observed in the solid API. Formation of Impurity A was the reason why Compound A sesquifumarate API and drug product were stored at refrigerated temperatures.

[8] = Polymorph screen: temperature cycling; conditions: temperature cycling 50→40→30→20→5 °C, total 2 cycles, each step 4 h, isolated at RT, XRPD
Protocol: as §1
The obtained solids were characterized by XRPD (Table 37).

[9] = Polymorph screen: solid vapor diffusion
Protocol: as §1
Solid vapor diffusion—About 30 mg API was transferred into 4 mL vials which are placed in 20 mL glass vials containing different solvents. The solids were tested by XRPD after 7-10 days (Table 31).

[10] = Polymorph screen: slurry at RT
Protocol: as §1
Slurry at RT—About 40 mg API was suspended and stirred in different solvents in 4 mL vials at RT. The solids in the slurry were characterized by XRPD after 5-7 days (Table 33).

In the case of `CCN(C(=O)c1cc(F)ccc1Oc1cncnc1N1CC2(CCN(C[C@H]3CC[C@H](NS(=O)(=O)CC)CC3)CC2)C1)C(C)C` [Compound A monocitrate monohydrate], the “Effect of solution pH on solubility” value ([1]; citrate-buffered solutions and formulations, pH 3 to 6) is reported as “maxima at both pH 3 and 6”, the USP solubility definition ([1]; physiological pH range from 1.2 through 6.8) is reported as “soluble” and the “Solubility trend as a function of pH” value ([1]; simple buffered solutions, pH 3.0 to 6.0) is reported as “highest at pH 3.0”. The solubility ([1]; unbuffered water, ambient temperature, read-out: Solubility) was 38.5 mg/mL, the “Crystal Form” value [2] was “FB-2” and the “Crystal Form” value ([3]; solvent DCM, antisolvent Acetone) was “Form A”. The “Crystal Form” value ([3]; solvent DCM, antisolvent MTBE) was “Form A”, the “Crystal Form” value ([3]; solvent NMP, antisolvent MTBE) was “Form A” and the “Crystal Form” value ([4]; DMSO:EtOAc 1:9, XRPD after 1 day) was “Form A”. For the same molecule, the “Crystal Form” value ([4]; THF, XRPD after 1 day) was “Form A”, the “Crystal Form” value ([5]; 1-propanol) was “Form A” and the “Crystal Form” value ([5]; 2-MeTHF) was “Form A”. The “Crystal Form” value ([5]; ACN 9:1) was “Form A”, the “Crystal Form” value ([5]; Anisole) was “Form A” and the “Crystal Form” value ([5]; Cyclohexane) was “Form A”. For the same molecule, the “Crystal Form” value ([5]; Dimethoxyethane) was “Form A”, the “Crystal Form” value ([5]; Ethyl acetate/MeOH 3:1) was “Form A” and the “Crystal Form” value ([5]; Heptane) was “Form A”. The “Crystal Form” value ([5]; IPAc) was “Form A”, the “Crystal Form” value ([5]; MEK) was “Form A” and the “Crystal Form” value ([5]; MTBE) was “Form A”. The “Crystal Form” value ([5]; Methyl Acetate) was “Form A”, the “Crystal Form” value ([5]; NMP:CPME (3:7 v/v)) was “Form A” and the “Crystal Form” value ([5]; Propylene glycol:Acetone 1:1) was “Form A”. The “Crystal Form” value ([5]; Propylene glycol:IPA 1:1) was “Form A”, the “Crystal Form” value ([5]; THF 9:1) was “Form A” and the “Crystal Form” value ([5]; Toluene) was “Form A”. For the same molecule, the “Crystal Form” value ([6]; about 30 mg API, 1,4-Dioxane) was “Form A”, the “Crystal Form” value ([6]; about 30 mg API, Acetone) was “Form A” and the “Crystal Form” value ([6]; about 30 mg API, DCM) was “Form A”. For the same molecule, the “Crystal Form” value ([6]; about 30 mg API, EtOH) was “Form A”, the “Crystal Form” value ([6]; about 30 mg API, THF) was “Form A” and the “Degradation by reaction of counterion with the pyrimidine ring” value [7] was “absence of this type of degradation”. For the same molecule, the “Crystal Form” value ([8]; 1,4-dioxane:H2O 9:1) was “Form A*”, the “Crystal Form” value ([8]; 2-MeTHF:DMF 9:1) was “Form A*” and the “Crystal Form” value ([8]; DMSO:Toluene 1:9) was “Form A*”. The “Crystal Form” value ([8]; NMP:nPA 1:9) was “Form A*”, the “Crystal Form” value ([9]; solid vapor diffusion, 1,4-dioxane, RT) was “Form A” and the “Crystal Form” value ([9]; solid vapor diffusion, 2-Methyl THF, RT) was “Form A”. For the same molecule, the “Crystal Form” value ([9]; solid vapor diffusion, CHCl3, RT) was “Form A”, the “Crystal Form” value ([9]; solid vapor diffusion, CPME, 40° C.) was “Form A” and the “Crystal Form” value ([9]; solid vapor diffusion, DCM, RT) was “Form A”. For the same molecule, the “Crystal Form” value ([9]; solid vapor diffusion, Dimethoxyethane, 40° C.) was “Form A”, the “Crystal Form” value ([9]; solid vapor diffusion, IPAc, RT) was “Form A” and the “Crystal Form” value ([9]; solid vapor diffusion, MEK, RT) was “Form A”. For the same molecule, the “Crystal Form” value ([9]; solid vapor diffusion, MTBE, RT) was “Form A”, the “Crystal Form” value ([9]; solid vapor diffusion, THF, RT) was “Form A” and the “Crystal Form” value ([9]; solid vapor diffusion, Toluene, 40° C.) was “Form A”. The “Crystal Form” value ([10]; Acetone) was “Form A”, the “Crystal Form” value ([10]; Benzene) was “Form A” and the “Crystal Form” value ([10]; CHCl3) was “Form A”. The “Crystal Form” value ([10]; CPME) was “Form A”, the “Crystal Form” value ([10]; DMA:Benzene 1:9) was “Form A” and the “Crystal Form” value ([10]; DMA:CHCl3 1:9) was “Form A”. The “Crystal Form” value ([10]; DMA:EtOH 1:9) was “Form A”, the “Crystal Form” value ([10]; DMF:EtOAc 1:9) was “Form A” and the “Crystal Form” value ([10]; DMSO (SL→Gel)) was “Amorphous”. For the same molecule, the “Crystal Form” value ([10]; DMSO:IPAc 1:9) was “Form A”, the “Crystal Form” value ([10]; Diethylamine:EtOH 3:7) was “FB-2” and the “Crystal Form” value ([10]; IPA) was “Form A”. For the same molecule, the “Crystal Form” value ([10]; MIBK) was “Form A”, the “Crystal Form” value ([10]; MeOH:MeCN 9:1) was “Form A” and the “Crystal Form” value ([10]; NMP:IPA 1:9) was “Form A”. For the same molecule, the “Crystal Form” value ([10]; THF:H2O (aw = 0.2)) was “Form A”, the “Crystal Form” value ([10]; THF:H2O (aw = 0.4)) was “Form A” and the “Crystal Form” value ([10]; THF:H2O (aw = 0.6)) was “Form A”. For the same molecule, the “Crystal Form” value ([10]; THF:H2O (aw = 0.8)) was “Form A” and the “Crystal Form” value ([10]; Toluene) was “Form A”.
